Measurements published in PubChem BioAssay AID248 (DTP/NCI, 2004).
Values joined by “and” are separate entries in the source; they are usually repeats but may differ in a detail not shown here. Identical values can stand only once. Toxic doses and inconclusive results are not listed. Cut-off read from the data, not from the text of the source: active = T/C of 150% or more; inactive = T/C below 125%.

System: L1210 leukemia ip in BDF1 mice, survival T/C
Test: NCI In Vivo Anticancer Drug Screen. Data for tumor model L1210 Leukemia (intraperitoneal) in B6D2F1 (BDF1) mice
Settings: endpoint: mean survival time, higher = longer survival
In short: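 Each compound was tested against a transplantable tumor grown in mice. The endpoint was survival, with treated animals benchmarked against vehicle controls as a simple ratio.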

Measured: T/C

CN(C)c1ccc(Nc2c3ccccc3nc3ccccc23)cc1
inactive: dose: 3.13 mg/kg/injection, schedule: Q03HX040 (ip), vehicle: saline 106 % of control | dose: 3.75 mg/kg/injection, schedule: Q01DX Z (ip), vehicle: saline 107 % of control | dose: 3.75 mg/kg/injection, schedule: Q01DX Z (oral), vehicle: olive oil, sesame oil, peanut oil 116 % of control | dose: 5.0 mg/kg/injection, schedule: Q01DX005 (ip), vehicle: saline 107 % of control | dose: 5.0 mg/kg/injection, schedule: Q01DX009 (ip), vehicle: saline 107 % of control | dose: 5.0 mg/kg/injection, schedule: Q01DX009 (sc), vehicle: saline 101 % of control | dose: 6.12 mg/kg/injection, schedule: Q03HX008 (ip), vehicle: saline 107 % of control | dose: 6.25 mg/kg/injection, schedule: Q03HX008 (ip), vehicle: saline 104 % of control | dose: 6.25 mg/kg/injection, schedule: Q03HX016 (ip), vehicle: saline 103 % of control | dose: 7.0 mg/kg/injection, schedule: Q01DX Z (sc), vehicle: steriod suspending solution 104 % of control | dose: 7.5 mg/kg/injection, schedule: Q01DX Z (ip), vehicle: saline 110 % of control | dose: 10.0 mg/kg/injection, schedule: Q01DX005 (ip), vehicle: saline 108 % of control | dose: 10.0 mg/kg/injection, schedule: Q01DX009 (ip), vehicle: saline 117 % of control | dose: 10.0 mg/kg/injection, schedule: Q01DX009 (oral), vehicle: saline 118 % of control | dose: 10.0 mg/kg/injection, schedule: Q01DX009 (sc), vehicle: saline 102 % of control | dose: 10.0 mg/kg/injection, schedule: Q01DX Z (sc), vehicle: steriod suspending solution 115 % of control | dose: 12.5 mg/kg/injection, schedule: Q01DX Z (im), vehicle: saline 108 % of control | dose: 12.5 mg/kg/injection, schedule: Q04DX003 (ip), vehicle: saline 104 % of control | dose: 12.5 mg/kg/injection, schedule: Q06HX004 (ip), vehicle: saline 115 % of control | dose: 12.5 mg/kg/injection, schedule: Q#A X Z (oral), vehicle: saline 112 % of control | dose: 15.0 mg/kg/injection, schedule: Q01DX Z (oral), vehicle: olive oil, sesame oil, peanut oil 115 % of control | dose: 15.0 mg/kg/injection, schedule: Q01DX Z (sc), vehicle: steriod suspending solution 107 % of control | dose: 16.0 mg/kg/injection, schedule: Q01DX Z (ip), vehicle: carboxymethylcellulose (CMC) 112 % of control | dose: 17.5 mg/kg/injection, schedule: Q#A X Z (ip), vehicle: saline 116 % of control | dose: 19.0 mg/kg/injection, schedule: Q03DX006 (oral), vehicle: saline 112 % of control | dose: 20.0 mg/kg/injection, schedule: Q01DX009 (oral), vehicle: saline 101 % of control | dose: 20.0 mg/kg/injection, schedule: Q01DX009 (sc), vehicle: saline 100 % of control | dose: 22.5 mg/kg/injection, schedule: Q01DX009 (ip), vehicle: saline 120 % of control | dose: 23.0 mg/kg/injection, schedule: Q01DX Z (sc), vehicle: steriod suspending solution 115 % of control and 119 % of control | dose: 24.0 mg/kg/injection, schedule: Q01DX Z (ip), vehicle: carboxymethylcellulose (CMC) 120 % of control | dose: 24.0 mg/kg/injection, schedule: Q01DX Z (ip), vehicle: saline 111 % of control | dose: 25.0 mg/kg/injection, schedule: Q01DX001 (oral), vehicle: saline 96 % of control | dose: 25.0 mg/kg/injection, schedule: Q01DX001 (sc), vehicle: saline 96 % of control | dose: 25.0 mg/kg/injection, schedule: Q01DX005 (ip), vehicle: Klucel (hydroxypropylcellulose) (HPC) 112 % of control | dose: 25.0 mg/kg/injection, schedule: Q01DX005 (ip), vehicle: other 108 % of control and 114 % of control | dose: 25.0 mg/kg/injection, schedule: Q01DX009 (ip), vehicle: saline 116 % of control | dose: 25.0 mg/kg/injection, schedule: Q01DX Z (im), vehicle: saline 108 % of control | dose: 25.0 mg/kg/injection, schedule: Q01DX Z (oral), vehicle: saline 120 % of control | dose: 27.0 mg/kg/injection, schedule: Q01DX Z (oral), vehicle: saline 115 % of control | dose: 30.0 mg/kg/injection, schedule: Q01DX Z (ip), vehicle: olive oil, sesame oil, peanut oil 116 % of control | dose: 30.0 mg/kg/injection, schedule: Q01DX Z (sc), vehicle: olive oil, sesame oil, peanut oil 114 % of control | dose: 30.0 mg/kg/injection, schedule: Q01DX Z (sc), vehicle: saline 114 % of control | dose: 35.0 mg/kg/injection, schedule: Q01DX Z (ip), vehicle: carboxymethylcellulose (CMC) 118 % of control | dose: 35.0 mg/kg/injection, schedule: Q01DX Z (ip), vehicle: saline 101 % of control and 111 % of control | dose: 35.0 mg/kg/injection, schedule: Q01DX Z (sc), vehicle: steriod suspending solution 113 % of control | dose: 37.0 mg/kg/injection, schedule: Q03DX006 (oral), vehicle: saline 118 % of control | dose: 40.0 mg/kg/injection, schedule: Q01DX009 (sc), vehicle: saline 105 % of control | dose: 50.0 mg/kg/injection, schedule: Q01DX001 (oral), vehicle: saline 105 % of control | dose: 50.0 mg/kg/injection, schedule: Q01DX001 (sc), vehicle: saline 97 % of control | dose: 50.0 mg/kg/injection, schedule: Q01DX005 (ip), vehicle: other 112 % of control | dose: 50.0 mg/kg/injection, schedule: Q01DX Z (im), vehicle: saline 116 % of control | dose: 50.0 mg/kg/injection, schedule: Q01DX Z (oral), vehicle: saline 117 % of control | dose: 50.0 mg/kg/injection, schedule: Q04DX003 (ip), vehicle: Klucel (hydroxypropylcellulose) (HPC) 111 % of control | dose: 50.0 mg/kg/injection, schedule: Q04DX003 (ip), vehicle: other 108 % of control and 119 % of control | dose: 50.0 mg/kg/injection, schedule: Q#A X Z (oral), vehicle: saline 118 % of control | dose: 53.0 mg/kg/injection, schedule: Q01DX Z (sc), vehicle: saline 113 % of control | dose: 53.0 mg/kg/injection, schedule: Q01DX Z (sc), vehicle: steriod suspending solution 115 % of control | dose: 53.3 mg/kg/injection, schedule: Q01DX Z (ip), vehicle: carboxymethylcellulose (CMC) 115 % of control | dose: 53.3 mg/kg/injection, schedule: Q01DX Z (ip), vehicle: methylcellulose (MC) 111 % of control | dose: 60.0 mg/kg/injection, schedule: Q01DX Z (oral), vehicle: olive oil, sesame oil, peanut oil 120 % of control | dose: 60.0 mg/kg/injection, schedule: Q01DX Z (sc), vehicle: olive oil, sesame oil, peanut oil 117 % of control | dose: 80.0 mg/kg/injection, schedule: Q01DX Z (ip), vehicle: methylcellulose (MC) 95 % of control | dose: 80.0 mg/kg/injection, schedule: Q01DX Z (sc), vehicle: saline 107 % of control | dose: 90.0 mg/kg/injection, schedule: Q01DX009 (ip), vehicle: saline 119 % of control | dose: 100.0 mg/kg/injection, schedule: Q01DX001 (oral), vehicle: saline 112 % of control | dose: 100.0 mg/kg/injection, schedule: Q01DX001 (sc), vehicle: saline 108 % of control | dose: 100.0 mg/kg/injection, schedule: Q01DX005 (ip), vehicle: other 100 % of control | dose: 100.0 mg/kg/injection, schedule: Q04DX003 (ip), vehicle: other 112 % of control | dose: 105.0 mg/kg/injection, schedule: Q01DX Z (ip), vehicle: saline 114 % of control | dose: 120.0 mg/kg/injection, schedule: Q01DX Z (oral), vehicle: olive oil, sesame oil, peanut oil 111 % of control | dose: 120.0 mg/kg/injection, schedule: Q01DX Z (sc), vehicle: saline 120 % of control | dose: 125.0 mg/kg/injection, schedule: Q01DX001 (ip), vehicle: Klucel (hydroxypropylcellulose) (HPC) 115 % of control | dose: 125.0 mg/kg/injection, schedule: Q01DX001 (ip), vehicle: saline 111 % of control | dose: 135.0 mg/kg/injection, schedule: Q#A X Z (ip), vehicle: saline 97 % of control | dose: 175.0 mg/kg/injection, schedule: Q01DX001 (oral), vehicle: saline 108 % of control and 121 % of control | dose: 175.0 mg/kg/injection, schedule: Q07DX003 (oral), vehicle: saline 117 % of control | dose: 180.0 mg/kg/injection, schedule: Q01DX Z (ip), vehicle: carboxymethylcellulose (CMC) 96 % of control and 108 % of control and 110 % of control | dose: 180.0 mg/kg/injection, schedule: Q01DX Z (sc), vehicle: saline 97 % of control | dose: 200.0 mg/kg/injection, schedule: Q01DX001 (oral), vehicle: saline 107 % of control | dose: 200.0 mg/kg/injection, schedule: Q01DX001 (sc), vehicle: saline 103 % of control | dose: 245.0 mg/kg/injection, schedule: Q01DX Z (ip), vehicle: saline 110 % of control | dose: 400.0 mg/kg/injection, schedule: Q01DX Z (im), vehicle: saline 93 % of control | dose: 405.0 mg/kg/injection, schedule: Q01DX Z (ip), vehicle: saline 100 % of control and 113 % of control | dose: 480.0 mg/kg/injection, schedule: Q01DX Z (sc), vehicle: saline 109 % of control | dose: 540.0 mg/kg/injection, schedule: Q01DX Z (ip), vehicle: saline 119 % of control | dose: 600.0 mg/kg/injection, schedule: Q03DX006 (oral), vehicle: saline 101 % of control | dose: 608.0 mg/kg/injection, schedule: Q01DX Z (ip), vehicle: saline 114 % of control | dose: 700.0 mg/kg/injection, schedule: Q01DX001 (oral), vehicle: saline 115 % of control | dose: 912.0 mg/kg/injection, schedule: Q01DX Z (ip), vehicle: saline 115 % of control | dose: 1000.0 mg/kg/injection, schedule: Q01DX001 (ip), vehicle: Klucel (hydroxypropylcellulose) (HPC) 109 % of control | dose: 1260.0 mg/kg/injection, schedule: Q01DX Z (ip), vehicle: saline 119 % of control | dose: 1400.0 mg/kg/injection, schedule: Q01DX001 (oral), vehicle: saline 109 % of control
